{
  "source": "patent US12414948B2",
  "about": "“Methods” (INTRA-CELLULAR THERAPIES, INC., priority 2022, dated 2025)",
  "key": {"[1]": {"system": "PBMCs from patients with schizophrenia and co-morbid depression", "assay": "Post-hoc analysis of inflammatory biomarkers in PBMCs, phase 3 clinical trial", "format": "in vivo, human", "experimental": "A randomized, double-blind, placebo-controlled, phase 3 clinical trial was conducted with 450 patients with schizophrenia, aged 18 to 60 years, who were experiencing an acute exacerbation of psychosis. Patients were included if they were experiencing an acute exacerbation of psychosis, defined as a total score on the Brief Psychiatric Rating Scale of […] or higher, with a score of 4 or higher on 2 or more positive symptoms, and onset of the acute episode within 4 weeks of screening. Patients were required to have a score of 4 or higher, indicating moderate to severe disease severity, on the Clinical Global Impression-Severity of Illness (CGI-S) at screening and baseline. Severity of illness was confirmed at baseline by a Positive and Negative Syndrome Scale (PANSS) total score of 70 or higher, indicating moderate to extreme symptoms of schizophrenia. A subgroup of these patients experienced co-morbid depression symptoms at baseline (defined as having a Calgary Depression Scale for Schizophrenia (CDSS) score greater than 6 at baseline). Full details of the clinical study were reported in Correll et al., JAMA Psychiatry, 77(4): 349-358 (2020).\nUsing blood samples stored from the study, a post-hoc analysis of inflammatory biomarkers in PBMCs from the patients with schizophrenia and co-morbid depression is conducted. […] Day 0 samples are available for 20 patients, while day 28 samples are available only for 18 patients. Mean baseline CDSS is 10.0, and mean baseline PANSS total score is 88.7 in the selected patients.\nSamples were processed to isolate PBMC according to standard procedures using the Ficoll-Paque method. Statistical analysis was performed using the paired t-test, two-tailed. Samples were tested for C-reactive protein (CRP), serum amyloid A (SAA), soluble CAM-1, soluble VCAM-1, IL-1β, TNF-αL, IL-6, IL-10, IL-2, IL-8, IL-13, and IFN-γ. ICAM-1 and VCAM-1 are expressed by the vascular endothelium, macrophages, and lymphocytes. Upon cytokine stimulation, their concentrations greatly increase. ICAM-1 can be induced by IL-1β and TNF. ICAM and VCAM proteins may also be involved in pathogen transit into CNS.\nThe results are shown in the table below (biomarker levels expressed in ng/mL; some values of N are less than the patient totals due to samples with levels of biomarker below the minimum for quantification): […]"}, "[2]": {"system": "patients with schizophrenia", "assay": "Randomized, double-blind, placebo-controlled phase 3 clinical trial in schizophrenia", "format": "in vivo, human", "experimental": "A randomized, double-blind, placebo-controlled, phase 3 clinical trial was conducted with 450 patients with schizophrenia, aged 18 to 60 years, who were experiencing an acute exacerbation of psychosis. Patients were included if they were experiencing an acute exacerbation of psychosis, defined as a total score on the Brief Psychiatric Rating Scale of […] or higher, with a score of 4 or higher on 2 or more positive symptoms, and onset of the acute episode within 4 weeks of screening. Patients were required to have a score of 4 or higher, indicating moderate to severe disease severity, on the Clinical Global Impression-Severity of Illness (CGI-S) at screening and baseline. […]\nThe primary efficacy end point was mean change from baseline to day 28 in the Positive and Negative Syndrome Scale (PANSS) total score versus placebo. […] The PANSS subscale scores, social function, safety, and tolerability were also assessed. Primary and key secondary efficacy measures were assessed weekly. Safety was assessed by treatment-emergent adverse events (TEAEs), modified physical examinations, 12-lead electrocardiograms (ECGs), vital signs, and clinical laboratory tests (blood and urine samples for clinical laboratory analysis were collected from all subjects upon screening and on Days 1, 8, 28, and 33, following overnight fast)."}, "[3]": {"system": "blood-brain barrier (NaFl brain penetration)", "assay": "BBB permeability assay (sodium fluorescein), LPS paradigm", "format": "in vivo, mouse", "settings": "mice, 2 h, label LPS = LPS alone, label Luma = Luma 3 mg/kg IP co-injected with LPS", "experimental": "BBB Permeability Assay. […] Mice are perfused with 15 ml 1×PBS solution.\nSystemic inflammation is associated with increased permeability of the BBB, and this has been discussed as a potential factor underlying depression pathophysiology. […] Forty-five minutes before sample collection, mice receive NaFl injections (200 μl of 10% solution, IP) (Table 3)."}, "[4]": {"system": "Sprague-Dawley rats", "assay": "Reward sniffing test (female urine sniffing test, FUST), LPS-induced anhedonia", "format": "in vivo, rat", "settings": "rats given LPS 1 mg/kg SC, label LPS = LPS + Vehicle, label Luma = Luma 1 mg/kg IP 24 h before and 24 h after LPS", "experimental": "All other reagents are obtained in the highest purity available from Sigma-Aldrich (St. Louis, MO) unless otherwise noted. […] Some rodents are given a cotreatment with a subcutaneous (SC) injection of lipopolysaccharide (LPS, 500 μg/kg; Sigma-Aldrich, ref #0127:B8) diluted in 0.9% injectable saline while control group animals receive injections of all vehicles matching the experimental conditions. […] On day 2, either no injection for naïve rats, or saline or LPS is injected (1 mg/kg, SC).\nBehavioral Evaluation. All behavioral tests are performed in the morning with adult male Sprague-Dawley rats (n=9-11 per group for the experiments with LPS, and n=13-14 per group for the naïve rats).\nReward Sniffing Test (also known also as female urine sniffing test (FUST)): In this anhedonia-based assay, rats are brought to a well-ventilated testing room under dim lighting. A sterile cotton-tipped applicator is attached to one wall in the home cage for 1 hour to habituate rats to this new object. For the 2 phases of the 5 minute test, rats are first exposed to a new cotton tip dipped in sterile water as a control that is removed at the end of the 5 minutes; 45 minutes later, another cotton tip previously dipped into fresh rat urine collected from females of the same strain is attached to the cage wall. Male behavior is video recorded and latency to first sniff of the cotton tip and total time spent sniffing the cotton-tipped applicator are determined.\nIn a pilot study, a dose response curve is conducted with varying doses of LPS to select an optimal dose for inducing an anhedonic response in rats. Based on these studies, a SC dose of 1 mg/kg LPS is selected. […] This is followed 24 hours later by an injection of LPS (1 mg/kg; SC). […] Control rats are administered saline instead of LPS and vehicle instead of lumateperone. Anhedonia is assessed using FUST (female urine sniffing test) and measuring latency to sniff the reward combined with time spent sniffing the reward. Latency sniffing water is used as a control. […]"}, "[5]": {"settings": "Day 28 of 60 mg lumateperone once daily, PBMC, schizophrenia patients with co-morbid depression"}},
  "data": [
    {"molecule": "CN1CCN2c3c(cccc31)[C@@H]1CN(CCCC(=O)c3ccc(F)cc3)CC[C@@H]12", "note": "[Luma, lumateperone]", "values": [
      {"measurement": "CRP, Median", "setting": "[1]; [5]", "result": 38.0, "unit": "ng/mL"},
      {"measurement": "IFN-γ, Average", "setting": "[1]; [5]", "result": 0.86, "unit": "ng/mL"},
      {"measurement": "IFN-γ, Median", "setting": "[1]; [5]", "result": 0.71, "unit": "ng/mL"},
      {"measurement": "IL-1β, Median", "setting": "[1]; [5]", "result": 0.74, "unit": "ng/mL"},
      {"measurement": "IL-2, Average", "setting": "[1]; [5]", "result": 0.37, "unit": "ng/mL"},
      {"measurement": "IL-2, Median", "setting": "[1]; [5]", "result": 0.25, "unit": "ng/mL"},
      {"measurement": "IL-6, Average", "setting": "[1]; [5]", "result": 0.55, "unit": "ng/mL"},
      {"measurement": "IL-6, Median", "setting": "[1]; [5]", "result": 0.32, "unit": "ng/mL"},
      {"measurement": "IL-8, Median", "setting": "[1]; [5]", "result": 44.0, "unit": "ng/mL"},
      {"measurement": "IL-10, Median", "setting": "[1]; [5]", "result": 0.21, "unit": "ng/mL"},
      {"measurement": "TNF-α, Average", "setting": "[1]; [5]", "result": 0.83, "unit": "ng/mL"},
      {"measurement": "TNF-α, Median", "setting": "[1]; [5]", "result": 0.43, "unit": "ng/mL"},
      {"measurement": "sVCAM-1, Median", "setting": "[1]; [5]", "result": 42.0, "unit": "ng/mL"},
      {"measurement": "Levels of inflammatory biomarkers in blood cells (PBMCs)", "setting": "[1]; after 28 days of treatment, versus baseline, patients with schizophrenia and co-morbid depression", "result": "significantly reduced"},
      {"measurement": "Symptoms of schizophrenia", "setting": "[2]; patients with acute exacerbation of psychosis, 60 mg or 40 mg lumateperone tosylate once daily for 28 days vs placebo", "result": "effective for improving the symptoms of schizophrenia"},
      {"measurement": "Safety profile", "setting": "[2]; patients with schizophrenia, 60 mg or 40 mg lumateperone tosylate once daily for 28 days", "result": "favorable safety profile"}
    ]},
    {"molecule": "lipopolysaccharide [LPS, reference compound]", "values": [
      {"measurement": "NaFl brain penetration (cerebrum/serum ratio)", "setting": "[3]", "result": "1.406 ± 0.0873 arbitrary units normalized to control"},
      {"measurement": "FUST Latency sniffing water", "setting": "[4]; control test", "result": 274.27, "unit": "s"},
      {"measurement": "FUST Latency sniffing reward", "setting": "[4]", "result": 164.2, "unit": "s"},
      {"measurement": "FUST Time sniffing reward", "setting": "[4]", "result": 11.11, "unit": "s"}
    ]}
  ]
}
